Source: patent US12655116B2, “Substituted isophthalic acid diamides” (Bayer Aktiengesellschaft, priority 2020, dated 2026)

Experiments:
ABUTH [1] = assay: Pre-emergence herbicidal action against ABUTH; format: in vivo, Abutilon theophrasti; conditions: for pest or weed control at 80 g/ha / pest or weed control at 20 g/ha: Abutilon theophrasti, 504 h; for pest or weed control at 20 g/ha: read-out: Pre-emergence action against ABUTH (herbicidal activity in percent)
Procedure, shortened: (§1)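 Herbicidal effect was assessed 3 weeks after treatment by visual comparison with untreated controls, 100% denoting dead plants. Aqueous WP or EC preparations had been applied at 600 to 800 l/ha with 0.2% wetting agent to the soil covering freshly sown seeds.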

ALOMY [2] = assay: Pre-emergence herbicidal action against ALOMY; format: in vivo, Alopecurus myosuroides; conditions: pre-emergence
Procedure, shortened: as §1

AMARE [3] = assay: Pre-emergence herbicidal action against AMARE; format: in vivo, Amaranthus retroflexus; conditions: for pest or weed control at 20 g/ha / pest or weed control at 80 g/ha: Amaranthus retroflexus, 504 h
Procedure, shortened: as §1

AVEFA = assay: Pre-emergence herbicidal action against AVEFA; format: in vivo, Avena fatua; conditions: pre-emergence
Procedure, shortened: as §1

ECHCG [4] = assay: Pre-emergence herbicidal action against ECHCG; format: in vivo, Echinochloa crus-galli; conditions: 80 g/ha
Procedure, shortened: as §1

LOLRI = assay: Pre-emergence herbicidal action against LOLRI; format: in vivo, Lolium rigidum; conditions: 80 g/ha; for pest or weed control at 80 g/ha: Lolium rigidum, 504 h
Procedure, shortened: as §1

MATIN [5] = assay: Pre-emergence herbicidal action against MATIN; format: in vivo, Matricaria inodora; conditions: for pest or weed control at 20 g/ha / pest or weed control at 80 g/ha: Tripleurospermum inodorum, 504 h; for pest or weed control at 20 g/ha: dosage 20 g/ha
Procedure, shortened: as §1

PHBPU [6] = assay: Pre-emergence herbicidal action against PHBPU; format: in vivo, Pharbitis purpurea
Procedure, shortened: as §1

POLCO = assay: Pre-emergence herbicidal action against POLCO; format: in vivo, Polygonum convolvulus; conditions: dosage 80 g/ha; for pest or weed control at 80 g/ha: Fallopia convolvulus, 504 h
Procedure, shortened: as §1

SETVI [7] = assay: Pre-emergence herbicidal action against SETVI; format: in vivo, Setaria viridis; conditions: Setaria viridis, 504 h; for pest or weed control at 20 g/ha: dosage 20 g/ha; for pest or weed control at 80 g/ha: dosage 80 g/ha
Procedure, shortened: as §1

VERPE [8] = assay: Pre-emergence herbicidal action against VERPE; format: in vivo, Veronica persica; conditions: for pest or weed control at 80 g/ha: Veronica persica, 504 h
Procedure, shortened: as §1

VIOTR = assay: Pre-emergence herbicidal action against VIOTR; format: in vivo, Viola tricolor
Procedure, shortened: as §1

DIGSA [9] = assay: Pre-emergence herbicidal action against DIGSA; format: in vivo, Digitaria sanguinalis; conditions: for pest or weed control at 20 g/ha / pest or weed control at 80 g/ha: Digitaria sanguinalis, 504 h
Procedure, shortened: as §1

ABUTH [10] = assay: Post-emergence herbicidal action against ABUTH; format: in vivo, Abutilon theophrasti; conditions: Abutilon theophrasti, 504 h, visual assessment about 3 weeks after treatment vs untreated controls; for pest or weed control at 20 g/ha: dosage 20 g/ha
Procedure, shortened: (§2)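 Herbicidal effect was scored visually in percent after about 3 weeks in the greenhouse. Plants had been raised in sandy loam and treated post-emergence at the one-leaf stage with formulated compound at 600 to 800 l/ha water plus 0.2% wetting agent.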

ALOMY [11] = assay: Post-emergence herbicidal action against ALOMY; format: in vivo, Alopecurus myosuroides; conditions: dosage 20 g/ha, visual assessment about 3 weeks after treatment vs untreated controls; for pest or weed control at 20 g/ha: Alopecurus myosuroides, 504 h
Procedure, shortened: as §2

AMARE [12] = assay: Post-emergence herbicidal action against AMARE; format: in vivo, Amaranthus retroflexus; conditions: 20 g/ha, visual assessment about 3 weeks after treatment, 100% = plants have died, 0% = like control plants
Procedure, shortened: as §2

ECHCG [13] = assay: Post-emergence herbicidal action against ECHCG; format: in vivo, Echinochloa crus-galli
Procedure, shortened: as §2

MATIN [14] = assay: Post-emergence herbicidal action against MATIN; format: in vivo, Matricaria inodora
Procedure, shortened: as §2

PHBPU [15] = assay: Post-emergence herbicidal action against PHBPU; format: in vivo, Pharbitis purpurea
Procedure, shortened: as §2

SETVI [16] = assay: Post-emergence herbicidal action against SETVI; format: in vivo, Setaria viridis; conditions: for pest or weed control at 20 g/ha: Setaria viridis, 504 h
Procedure, shortened: as §2

VERPE [17] = assay: Post-emergence herbicidal action against VERPE; format: in vivo, Veronica persica; conditions: 20 g/ha; for pest or weed control at 20 g/ha: Veronica persica, 504 h
Procedure, shortened: as §2

DIGSA [18] = assay: Post-emergence herbicidal action against DIGSA; format: in vivo, Digitaria sanguinalis
Procedure, shortened: as §2

[19] = 80 g/ha, scored visually after 3 weeks vs untreated controls (100% = plants have died, 0% = like control plants)
[20] = dosage 20 g/ha, scored visually after 3 weeks vs untreated controls, 100% = plants have died, 0% = like control plants
[21] = Alopecurus myosuroides, 504 h, 80 g/ha, scored visually after 3 weeks vs untreated controls (100% = plants have died, 0% = like control plants)
[22] = 20 g/ha, scored visually after 3 weeks vs untreated controls, 100% = plants have died, 0% = like control plants
[23] = 80 g/ha, scored visually after 3 weeks vs untreated controls, 100% = plants have died, 0% = like control plants
[24] = Ipomoea purpurea, 504 h, dosage 80 g/ha
[25] = Viola tricolor, 504 h, dosage 80 g/ha
[26] = Echinochloa crus-galli, 504 h, dosage 20 g/ha
[27] = Tripleurospermum inodorum, 504 h, dosage 20 g/ha
[28] = Ipomoea purpurea, 504 h, dosage 20 g/ha
[29] = Digitaria sanguinalis, 504 h, 20 g/ha

CC(C)NC(=O)c1c(C(F)F)ccc(C(=O)Nc2nnnn2C)c1Cl [Example 1-155]
pest or weed control at 80 g/ha (ABUTH [1]; [19]): 100% | pest or weed control at 20 g/ha (ABUTH [1]; [20]): 100% | pest or weed control at 80 g/ha (ALOMY [2]; [21]): 90% | pest or weed control at 20 g/ha (AMARE [3]; [22]): 100% | pest or weed control at 80 g/ha (AMARE [3]; [23]): 100% | pest or weed control at 80 g/ha (AVEFA; Avena fatua, 504 h, 80 g/ha): 90% | pest or weed control at 80 g/ha (ECHCG [4]; Echinochloa crus-galli, 504 h): 100% | pest or weed control at 80 g/ha (LOLRI): 90% | pest or weed control at 20 g/ha (MATIN [5]): 100% | pest or weed control at 80 g/ha (MATIN [5]; dosage 80 g/ha): 100% | pest or weed control at 80 g/ha (PHBPU [6]; [24]): 100% | pest or weed control at 80 g/ha (POLCO): 90% | pest or weed control at 20 g/ha (SETVI [7]): 80% | pest or weed control at 80 g/ha (SETVI [7]): 100% | pest or weed control at 80 g/ha (VERPE [8]; dosage 80 g/ha): 100% | pest or weed control at 80 g/ha (VIOTR; [25]): 100% | pest or weed control at 20 g/ha (DIGSA [9]; dosage 20 g/ha): 100% | pest or weed control at 80 g/ha (DIGSA [9]; dosage 80 g/ha): 100% | pest or weed control at 5 g/ha (ABUTH [10]; dosage 5 g/ha): 80% | pest or weed control at 20 g/ha (ABUTH [10]): 90% | pest or weed control at 20 g/ha (ALOMY [11]): 90% | pest or weed control at 20 g/ha (AMARE [12]; Amaranthus retroflexus, 504 h): 90% | pest or weed control at 5 g/ha (ECHCG [13]; Echinochloa crus-galli, 504 h, dosage 5 g/ha): 90% | pest or weed control at 20 g/ha (ECHCG [13]; [26]): 90% | pest or weed control at 20 g/ha (MATIN [14]; [27]): 80% | pest or weed control at 5 g/ha (PHBPU [15]; Ipomoea purpurea, 504 h, dosage 5 g/ha): 90% | pest or weed control at 20 g/ha (PHBPU [15]; [28]): 90% | pest or weed control at 20 g/ha (SETVI [16]; dosage 20 g/ha): 80% | pest or weed control at 20 g/ha (VERPE [17]): 80% | pest or weed control at 5 g/ha (DIGSA [18]; Digitaria sanguinalis, 504 h, 5 g/ha): 90% | pest or weed control at 20 g/ha (DIGSA [18]; [29]): 90%

Cc1c(C(=O)Nc2nnnn2C)ccc(C(F)F)c1C(=O)NC(C)C1CC1 (stereo not drawn) [Example 1-339]
Pre-emergence action against ABUTH (herbicidal activity) (ABUTH [1]; [19]): 100% | Pre-emergence action against ABUTH (herbicidal activity in percent) (ABUTH [1]; [20]): 90% | Pre-emergence action against ALOMY (herbicidal activity) (ALOMY [2]; [19]): 90% | Pre-emergence action against AMARE in % (AMARE [3]; [22]): 100% | Pre-emergence action against AMARE in % (AMARE [3]; [19]): 100% | Pre-emergence action against AVEFA in % (AVEFA; 80 g/ha): 100% | Pre-emergence action against ECHCG in % (ECHCG [4]): 100% | Pre-emergence action against LOLRI in % (LOLRI): 100% | Pre-emergence action against MATIN in % (MATIN [5]; dosage 80 g/ha): 100% | Pre-emergence action against PHBPU in % (PHBPU [6]; dosage 20 g/ha): 100% | Pre-emergence action against PHBPU in % (PHBPU [6]; dosage 80 g/ha): 100% | Pre-emergence action against POLCO in % (POLCO): 80% | Pre-emergence action against VERPE in % (VERPE [8]; dosage 20 g/ha): 100% | Pre-emergence action against VERPE in % (VERPE [8]; dosage 80 g/ha): 100% | Pre-emergence action against VIOTR in % (VIOTR; dosage 20 g/ha): 100% | Pre-emergence action against VIOTR in % (VIOTR; dosage 80 g/ha): 100% | Pre-emergence action against DIGSA in % (DIGSA [9]; dosage 20 g/ha): 100% | Pre-emergence action against DIGSA in % (DIGSA [9]; dosage 80 g/ha): 100% | Post-emergence action against ALOMY in % (ALOMY [11]): 80% | Post-emergence action at 20 g/ha against AMARE in % (AMARE [12]): 90% | Post-emergence action against ECHCG in % (ECHCG [13]; dosage 5 g/ha): 90% | Post-emergence action against ECHCG in % (ECHCG [13]; dosage 20 g/ha): 90% | Post-emergence action against MATIN in % (MATIN [14]; dosage 20 g/ha): 80% | Post-emergence action against PHBPU in % (PHBPU [15]; dosage 5 g/ha): 80% | Post-emergence action against PHBPU in % (PHBPU [15]; dosage 20 g/ha): 90% | Post-emergence action against SETVI in % (SETVI [16]; dosage 5 g/ha): 80% | Post-emergence action against SETVI in % (SETVI [16]; dosage 20 g/ha): 90% | Post-emergence action against VERPE in % (VERPE [17]): 90% | Post-emergence action against DIGSA in % (DIGSA [18]; 5 g/ha): 90% | Post-emergence action against DIGSA (DIGSA [18]; 20 g/ha): 90%

CCNC(=O)c1c(I)ccc(C(=O)Nc2nnnn2CC)c1Cl [Example 2-196]
pest or weed control at 80 g/ha (ABUTH [1]; [19]): 100% | pest or weed control at 20 g/ha (ABUTH [1]; [20]): 100% | pest or weed control at 80 g/ha (ALOMY [2]; [21]): 100% | pest or weed control at 20 g/ha (ALOMY [2]; Alopecurus myosuroides, 504 h, 20 g/ha, scored visually after 3 weeks, 100% = plants have died, 0% = like control plants): 90% | pest or weed control at 20 g/ha (AMARE [3]; [22]): 100% | pest or weed control at 80 g/ha (AMARE [3]; [23]): 100% | pest or weed control at 80 g/ha (AVEFA; Avena fatua, 504 h, 80 g/ha): 100% | pest or weed control at 20 g/ha (AVEFA; Avena fatua, 504 h, 20 g/ha, scored visually after 3 weeks, 100% = plants have died, 0% = like control plants): 80% | pest or weed control at 80 g/ha (LOLRI): 100% | pest or weed control at 20 g/ha (MATIN [5]): 100% | pest or weed control at 80 g/ha (MATIN [5]; dosage 80 g/ha): 100% | pest or weed control at 20 g/ha (PHBPU [6]; [28]): 80% | pest or weed control at 80 g/ha (PHBPU [6]; [24]): 90% | pest or weed control at 80 g/ha (POLCO): 90% | pest or weed control at 20 g/ha (SETVI [7]): 90% | pest or weed control at 80 g/ha (SETVI [7]): 100% | pest or weed control at 80 g/ha (VERPE [8]; dosage 80 g/ha): 80% | pest or weed control at 20 g/ha (VIOTR; Viola tricolor, 504 h, dosage 20 g/ha): 90% | pest or weed control at 80 g/ha (VIOTR; [25]): 100% | pest or weed control at 20 g/ha (DIGSA [9]; dosage 20 g/ha): 90% | pest or weed control at 80 g/ha (DIGSA [9]; dosage 80 g/ha): 100% | pest or weed control at 20 g/ha (ABUTH [10]): 100% | pest or weed control at 20 g/ha (ALOMY [11]): 90% | pest or weed control at 20 g/ha (ECHCG [13]; [26]): 80% | pest or weed control at 5 g/ha (MATIN [14]; Tripleurospermum inodorum, 504 h, dosage 5 g/ha): 80% | pest or weed control at 20 g/ha (MATIN [14]; [27]): 90% | pest or weed control at 20 g/ha (SETVI [16]; dosage 20 g/ha): 100% | pest or weed control at 20 g/ha (VERPE [17]): 80% | pest or weed control at 20 g/ha (DIGSA [18]; [29]): 90%
